Data taken from ChEMBL document CHEMBL1125693, “Synthesis and biological activity of new halo-steroidal antiestrogens” (J Med Chem, 1991).

What was measured:
[1] = biological target: T1, Estrogen receptor (Mus musculus) (UniProt O08537+P19785); experiment: Inhibition of estradiol-induced uterine weight gain in ovariectomized BALB/c mice at 20 ug dose twice daily; format: functional
[2] = biological target: T1, Estrogen receptor (Mus musculus); experiment: Inhibition of estradiol-induced uterine weight gain in ovariectomized BALB/c mice at 3 ug dose twice daily; format: functional

T1 sequence (O08537 whole entry, looked up): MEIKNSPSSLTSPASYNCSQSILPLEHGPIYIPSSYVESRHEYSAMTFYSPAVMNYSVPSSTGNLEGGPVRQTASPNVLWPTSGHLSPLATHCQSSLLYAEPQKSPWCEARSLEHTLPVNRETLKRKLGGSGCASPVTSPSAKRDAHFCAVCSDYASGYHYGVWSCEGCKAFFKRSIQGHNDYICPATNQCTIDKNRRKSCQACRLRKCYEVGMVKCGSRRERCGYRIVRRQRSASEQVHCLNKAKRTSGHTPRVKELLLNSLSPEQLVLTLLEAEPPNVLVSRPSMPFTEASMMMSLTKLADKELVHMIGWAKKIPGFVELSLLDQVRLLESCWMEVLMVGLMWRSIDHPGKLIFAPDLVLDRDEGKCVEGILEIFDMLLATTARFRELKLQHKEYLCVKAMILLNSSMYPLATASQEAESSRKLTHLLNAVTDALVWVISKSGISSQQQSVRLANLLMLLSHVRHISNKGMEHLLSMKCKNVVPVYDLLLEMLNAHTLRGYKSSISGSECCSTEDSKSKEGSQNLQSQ
T1 sequence (P19785 whole entry, looked up): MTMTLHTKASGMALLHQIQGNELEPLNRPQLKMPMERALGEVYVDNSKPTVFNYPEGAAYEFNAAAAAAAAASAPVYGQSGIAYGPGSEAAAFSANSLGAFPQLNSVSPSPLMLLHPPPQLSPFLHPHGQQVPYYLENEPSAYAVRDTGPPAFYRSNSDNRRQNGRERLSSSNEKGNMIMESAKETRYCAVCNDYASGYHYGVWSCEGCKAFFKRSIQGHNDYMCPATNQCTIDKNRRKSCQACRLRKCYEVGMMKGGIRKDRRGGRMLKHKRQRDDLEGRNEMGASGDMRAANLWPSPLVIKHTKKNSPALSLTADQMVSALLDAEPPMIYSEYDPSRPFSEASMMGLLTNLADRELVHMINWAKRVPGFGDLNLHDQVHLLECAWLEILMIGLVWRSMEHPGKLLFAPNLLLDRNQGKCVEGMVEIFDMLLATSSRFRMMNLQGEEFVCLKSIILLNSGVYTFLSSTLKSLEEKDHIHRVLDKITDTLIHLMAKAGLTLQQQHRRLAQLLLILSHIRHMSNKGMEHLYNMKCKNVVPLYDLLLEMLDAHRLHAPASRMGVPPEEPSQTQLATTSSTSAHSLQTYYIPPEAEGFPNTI

Row | SMILES | inhibition [1] [%] | inhibition [2] [%]
1 | CCCCN(C)C(=O)CCCCCCCCCC[C@@H]1Cc2cc(O)ccc2[C@H]2CC[C@]3(C)[C@@H](O)[C@H](Br)C[C@H]3[C@H]12 | 79 | 52
2 | CCCCN(C)C(=O)CCCCCCCCCC[C@@H]1Cc2cc(O)ccc2[C@H]2CC[C@]3(C)[C@H](O)[C@H](Br)C[C@H]3[C@H]12 | 78 | 60
3 | CCCCN(C)C(=O)CCCCCCCCCC[C@@H]1Cc2cc(O)ccc2[C@H]2CC[C@]3(C)[C@@H](O)[C@H](I)C[C@H]3[C@H]12 | – | 63
4 | CCCCN(C)C(=O)CCCCCCCCCC[C@@H]1Cc2cc(O)ccc2[C@H]2CC[C@]3(C)[C@@H](O)CC[C@H]3[C@H]12 | – | 40

Second part, the molecule after the results:

Row | inhibition [1] [%] | inhibition [2] [%] | SMILES
5 | – | 74 | CCCCN(C)C(=O)CCCCCCCCCC[C@@H]1Cc2cc(O)ccc2[C@H]2CC[C@]3(C)[C@@H](O)[C@H](Cl)C[C@H]3[C@H]12
6 | – | 35 | CCCCN(C)C(=O)CCCCCCCCCC[C@@H]1Cc2cc(O)ccc2[C@H]2CC[C@]3(C)[C@H](O)[C@H](Cl)C[C@H]3[C@H]12
